According to patent US9127027B2, “Epoxyeicosatrienoic acid analogs and methods of making and using the same” (The Medical College of Wisconsin, Inc., priority 2011, dated 2015):
Where two headings read alike, the source gives them in different places.

Assays:
bovine coronary artery = test: Vasorelaxant activity in bovine coronary artery rings precontracted with U-46619; assay type: cell-based; conditions: for EC50: Bos taurus
Procedure: Vasorelaxant activity was measured in bovine coronary artery. Bovine hearts were obtained and the left anterior descending coronary artery was dissected and cleaned of connective tissue. Vessels of 1 mm diameter were cut into rings of 3 mm width as previously described (3, 27, 39). […] The vessels were suspended from a pair of stainless steel hooks in a 6-ml water-jacketed organ chamber. […] One hook was anchored to a steel rod and the other hook to a force transducer (model FT-03C; Grass Instruments, West Warwick, R.I.). Tension of the vessel was measured by an ETH-400 bridge amplifier, and the data were acquired with a MacLab 8e analog-to-digital converter and MacLab software version 3.5.6 (AD Instruments, Milford, Mass.) and stored on a Macintosh computer for subsequent data analysis.
Basal tension was set at the length-tension maximum of 3.5 g and equilibrated for 1.5 h. KCl (40 mM) was added to the chamber until reproducible maximal contractions were maintained. […] Cumulative additions of compounds were added to the chamber. Between concentration-response curves, the chambers were rinsed with fresh Krebs buffer, 40 mM KCl was administered to determine the maximum contraction, and the vessels were rinsed. Consecutive concentration-response curves were performed with 14,15-EET followed by a concentration-response curve to a compound. The experiment was always repeated with the order of the agonists reversed. […] The relaxation was plotted versus compound concentration and the EC50 determined utilizing statistical software.

Human recombinant sEH = Human recombinant sEH (Homo sapiens (Human), UniProt P34913); test: Soluble epoxide hydrolase inhibition (PHOME fluorescent substrate); assay type: biochemical
Sequence of Human recombinant sEH (P34913 whole entry): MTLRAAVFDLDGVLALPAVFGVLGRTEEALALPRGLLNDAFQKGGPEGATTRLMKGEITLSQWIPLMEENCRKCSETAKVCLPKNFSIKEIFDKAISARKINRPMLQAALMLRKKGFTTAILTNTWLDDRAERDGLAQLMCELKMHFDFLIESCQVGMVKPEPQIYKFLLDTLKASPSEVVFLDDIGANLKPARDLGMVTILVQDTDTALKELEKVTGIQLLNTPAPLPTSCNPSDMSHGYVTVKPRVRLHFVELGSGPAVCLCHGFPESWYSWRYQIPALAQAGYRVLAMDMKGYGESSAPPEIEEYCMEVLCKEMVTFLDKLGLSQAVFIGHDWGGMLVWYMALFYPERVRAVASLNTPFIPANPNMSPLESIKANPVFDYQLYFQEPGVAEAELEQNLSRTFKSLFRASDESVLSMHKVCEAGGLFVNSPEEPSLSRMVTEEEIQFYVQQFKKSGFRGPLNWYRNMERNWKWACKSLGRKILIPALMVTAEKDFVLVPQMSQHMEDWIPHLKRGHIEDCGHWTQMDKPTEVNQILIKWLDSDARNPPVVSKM
Procedure: Compounds were tested for their ability to inhibit recombinant soluble epoxide hydrolase (sEH) protein. The assay utilizes (3-Phhenyl-oxiranyl)-acetic acid cyano-(6-methoxy-naphthalen-2-yl)-methyl ester (PHOME), a sensitive substrate for sEH that can be used to monitor the activity of both human and murine enzymes. […] Human recombinant sEH was incubated with substrate and compounds ranging in concentration from 0.1 to 1000 nM.

[1] = system: Spontaneously Hypertensive Rats (SHR); test: Telemetry blood pressure and heart rate in spontaneously hypertensive rats; assay type: in vivo, rat
From the text: Telemetry Blood Pressure Measurement. To accurately detect changes in blood pressure and heart rate, telemetry transmitters (Data Sciences Inc., St. Paul, Minn.) were implanted in rats one week prior to the experimental period according to manufacturer's specifications while under pentobarbital anesthesia. In brief, an incision was made to expose the femoral artery that was occluded to allow insertion of the transmitter catheter. The catheter was secured in place with tissue glue and the transmitter body was sutured in place and the incision line was closed. Rats were allowed to recover from surgery and were returned to individual housing. A baseline arterial pressure was recorded for prior to the experimental period. Mean arterial pressure was continuously recorded throughout the experimental period.
Telemetry transmitters were implanted into male SHR as described. After the surgical recovery period, baseline mean arterial pressure was recorded. In this series of experiments, EET analogs were administered by osmotic pump (2 mg/d, i.p.) and blood pressure was continuously monitored.

[2] = system: Wistar-Kyoto (WKY) rats administered cisplatin; test: Cisplatin-induced nephrotoxicity in rats pretreated with EET analogs; assay type: in vivo, rat
From the text: Experiments were approved and carried out according to the guidelines of the Institutional Animal Care and Use Committee, Medical College of Wisconsin, Milwaukee, USA. Male Wistar-Kyoto (WKY) rats weighing 180-200 g (Charles River, Mass., USA). All animals were kept in a temperature-controlled environment with a 12-h light/dark cycle and were allowed free access to food and water at all times. An acclimatization period of 6 days was allowed for the rats before experimentation. The rats were assigned into four groups. Group 1 (WKY, n=5-7): Rats received drinking water ad libitum for seven days and on day 7 DMSO (Sigma Aldrich, St. Louis, Mo., USA) was administered (300-500 μl i.p). […] Group 2 (CP+Vehicle, n=5-7): Rats were pretreated with vehicle (0.05% ethanol and 0.1% PEG-400 v/v) in drinking water for seven days and then on day 7 CP was administered (7 mg/kg i.p.) followed by another five days treatment with vehicle. Group 3 (CP+EET-A, n=5-7): These rats are pretreated with the EET analog EET-A (10 mg/kg/day p.o.) for seven days in drinking water and then on day 7 administered CP as a single injection (7 mg/kg i.p.) followed by another five days treatment with EET-A. Group 4 (CP+EET-B, n=5-7): Rats of this group are pretreated with another EET analog EET-B (10 mg/kg/day) for 7 days in drinking water and then on day 7 CP was administered as a single injection (7 mg/kg i.p.) followed by another five days treatment with EET-B. Rats of groups 2, 3 and 4 had free access to vehicle, EET-A and -B in drinking water, respectively. One day before the rats were sacrificed, urine of each rat was collected over a 24-h period, and the volume was measured. Five days after CP or DMSO administration, rats were anesthetized for blood sample collection followed by euthanasia and tissue collection. Urine and plasma samples were kept frozen at −80° C. until analyzed. The kidneys were removed, washed with physiological saline and stored at −80° C. until used for RT-PCR analysis, thiobarbituric acid reactive substance (TBARS) measurement and caspase 3 activity assay. A part of the kidney also preserved in 10% buffered formalin for histological examination.
The levels of blood urea nitrogen (BUN) (BioAssay Systems, Hayward, Calif., USA) and serum creatinine (Cayman Chemical Company, Ann Arbor, Mich., USA) were measured spectrophotometrically using commercial kits. Urinary content of creatinine and protein were measured using commercial kits (Cayman Chemical Company, Ann Arbor, Mich., USA), and the activity of urinary N-acetyl-b-glucosaminidase (NAG) in the urine was measured by a kit from Diazyme (Diazyme Laboratories, Poway, Calif., USA). While urine content of kidney injury molecule-1 (KIM-1) was measured using ELISA (R&D Systems, Inc. Minneapolis, Minn., USA).
Malondialdehyde (MDA) is a thiobarbituric acid reactive substance (TBARS) that is formed as an end-product of lipid peroxidation and serves as an important index of oxidative stress. To determine the kidney MDA level, the rat kidney was homogenized with buffer containing 1.5% potassium chloride to obtain a 1:10 (w/v) whole kidney homogenate. Using a commercially available kit (Cayman Chemical Company, Ann Arbor, Mich., USA), MDA was measured spectrophotometrically after reaction with thiobarbituric acid. […]
Real-Time analysis was carried out to assess the expression of oxidative (gp91phox, NOX1, SOD1, SOD2, SOD3), inflammatory (TNF-α, IL-6, IL-1β), apoptotic (Bax, Bak, Bcl-2) and endoplasmic reticulum stress (GRP78, caspase 12) related genes in the kidney. Total RNA was isolated from kidney homogenate using TRIzol LS reagents (Invitrogen Life Technologies, Carlsbad, Calif., USA) according to the manufacturer's instructions. The isolated RNA was treated with RNase-free DNase (Invitrogen, Carlsbad, Calif., USA) to remove traces of genomic DNA contamination. […]

NCCIT cells = test: Cell viability (alamar blue), cisplatin with concurrent EET-A; assay type: cell-based, human
Procedure: In this study, HEK293, U87MG, Hela cell-lines were obtained from the ATCC (Manassas, Va., USA) (HEK293, U87MG, Hela), and NCCIT was collected from Department of Pediatrics, UT Southwestern Medical Center at Dallas, Tex., USA. All cell lines were maintained in DMEM or RPIM with 10% fetal bovine serum and penicillin/streptomycin purchased from Life Technologies (Grand Island, N.Y., USA). Cisplatin was purchased from either Sigma (St. Louis, Mo., USA) or CalBiochem/EMD Biosciences (Billerica, Mass., USA). Cells were seeded in 96-well plates at 500 to 4,000 cells per well depends on cell type. […] Cell viability was measured by alamar blue assay using resazurin (Sigma Aldrich) according to the manufacturer's guidelines. Viability results were measured by fluorescence/absorbance in a 96-well plate reader from BMG Labtech (Cary, N.C., USA) and the IC50 was calculated by GraphPad Prism® software (GraphPad Software Inc, La Jolla, Calif., USA).

[3] = vs vehicle-treated cisplatin rats

`CCCCCCC(=O)N(CCCC/C=C\CCCCCCC1=NOS(=O)N1)C(C)C` (centres unmarked) [Compound 26] was tested, and the “Vascular Relax. % (10 μM)” value (bovine coronary artery; 10 μM, 100% relaxation = basal pre-U-46619 tension) was 109%, the “Vascular relaxation % relaxation (10 μM)” value (bovine coronary artery; 10 μM, Table 2) was 109% and the EC50 (bovine coronary artery; Table 2, read-out: Vascular relaxation EC50) was 320 nM. The EC50 (bovine coronary artery; bovine coronary artery, read-out: Vascular Relax. EC50) was 320 nM, the IC50 (Human recombinant sEH; Table 1 head prints μM (Table 2 prints nM for same numbers), read-out: sEHi IC50) was over 0.5 µM and the IC50 (Human recombinant sEH; Table 2, read-out: SEHi activity IC50) was over 0.5 µM. For the same molecule, the “blood pressure after two weeks of treatment” value ([1]; 2 mg/d i.p. osmotic pump, vehicle 141±3.0) was 150±5.0 mmHg and the heart rate ([1]; 2 mg/d i.p., vehicle 331±17.0) was 344±23.0 BPM.
With `CCCCCNC(=O)NCCCC/C=C\CCCCCCC(=O)NC(CC(=O)[O-])C(=O)[O-].[Na+].[Na+]` [EET-A, Sodium (S)-2-(13-(3-pentylureido)tridec-8(Z)-enamido)succinate] the “kidney TBARS formation” value ([2]; 10 mg/kg/d p.o., after cisplatin, vehicle 16±2) was 7 ± 1 µmol/g, the BUN ([2]; 10 mg/kg/d p.o., day 5 after cisplatin 7 mg/kg i.p., vehicle 241±51) was 108 ± 30 mg/dL and the “urinary NAG” value ([2]; 10 mg/kg/d p.o., day 5 after cisplatin, vehicle 3.0±0.6) was 0.5±0.1 U/d. For the same molecule, the “plasma creatinine (PCr)” value ([2]; 10 mg/kg/d p.o., day 5 after cisplatin, vehicle 3.1±0.2) was 2.0 ± 0.2 mg/dL, the KIM-1 urinary excretion ([2]; 10 mg/kg/d p.o., day 5 after cisplatin, vehicle 296±94) was 85 ± 29 ng/day and the cisplatin-induced proteinuria ([2]; 10 mg/kg/d p.o., vehicle 53±5) was 33 ± 8 mg/day. The “reductions in renal mRNA expressions of inflammatory markers (TNF-α, IL-6, IL-1β)” value ([2]; cisplatin-administered rats) was 40-60%, the “reduction in elevated renal expressions of GRP78 and caspase 12 mRNAs” value ([2]; vs vehicle treatment, cisplatin-administered rats) was 2-4 fold and the “decrease in kidney expression of NOX1 and gp91phox mRNAs” value [2, 3] was 2-3 folds. The “reduction in urinary excretion of NAG and KIM-1” value [2, 3] was 30-50%, the “reduction of cisplatin-induced proteinuria” value [2, 3] was at least 40% and the “reductions in elevated serum creatinine and BUN” value [2, 3] was 30-50%.
`N.N.[Cl][Pt][Cl]` [cisplatin] showed an IC50 (NCCIT cells; read-out: IC50 for cisplatin, with 0 ng/ml EET-A) of 2600 nM, an IC50 (NCCIT cells; read-out: IC50 for cisplatin, with 1 ng/ml EET-A) of 2550 nM and an IC50 (NCCIT cells; read-out: IC50 for cisplatin, with 10 ng/ml EET-A) of 2440 nM.
